Assay results published in the supplement of paper PMC10307832.

Key:
Assay in all cases: relative viability (nuclei count vs DMSO), 5 days (fraction); higher = more cells survive
[1] = compound: CCc1c2c(nc3ccc(OC(=O)N4CCC(N5CCCCC5)CC4)cc13)-c1cc3c(c(=O)n1C2)COC(=O)[C@]3(O)CC [Irinotecan] + Cc1cc(Nc2cc(N3CCN(C)CC3)nc(Sc3ccc(NC(=O)C4CC4)cc3)n2)n[nH]1 [Tozasertib] (partner 0.1 µM)
Method in brief: (§1)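 Dosing by pin tool came one day after lung cancer cell lines were seeded in 1536-well plates, using either one drug or a fixed anchor-drug dose plus five library-drug doses (not always all listed) in √10 steps. After 5 days, nuclei were counted on 4× images. Relative viability is treated-well nuclei count divided by vehicle-well nuclei count, and values are medians of duplicate plates.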

[2] = compound: Cn1cc(-c2cnc3ccc4ccc(CS(=O)(=O)NCc5ccccn5)cc4c(=O)c3c2)cn1 [MK-8033] + CC(=O)c1c(C)c2cnc(Nc3ccc(N4CCNCC4)cn3)nc2n(C2CCCC2)c1=O [Palbociclib] (partner 0.5 µM)
Method in brief: as §1

[3] = compound: Cn1cc(-c2cnc3ccc4ccc(CS(=O)(=O)NCc5ccccn5)cc4c(=O)c3c2)cn1 [MK-8033] + Cc1nc(NC(=O)N2CCC[C@H]2C(N)=O)sc1-c1ccnc(C(C)(C)C(F)(F)F)c1 [Alpelisib] (partner 2 µM)
Method in brief: as §1

[4] = compound: Cn1cc(-c2cnc3ccc4ccc(CS(=O)(=O)NCc5ccccn5)cc4c(=O)c3c2)cn1 [MK-8033] + Nc1ncn([C@H]2C[C@H](O)[C@@H](CO)O2)c(=O)n1 [Decitabine] (partner 2 µM)
Method in brief: as §1

Row | Cell Line | relative viability ([1]; first compound 0.6325 µM) | relative viability ([1]; first compound 2 µM) | relative viability ([1]; first compound 6.325 µM) | relative viability ([1]; first compound 20 µM) | relative viability ([2]; first compound 0.02 µM) | relative viability ([2]; first compound 0.2 µM) | relative viability ([2]; first compound 0.6325 µM) | relative viability ([2]; first compound 2 µM) | relative viability ([3]; first compound 0.02 µM) | relative viability ([3]; first compound 0.2 µM) | relative viability ([3]; first compound 0.6325 µM) | relative viability ([3]; first compound 2 µM) | relative viability ([4]; first compound 0.02 µM) | relative viability ([4]; first compound 0.2 µM) | relative viability ([4]; first compound 0.6325 µM) | relative viability ([4]; first compound 2 µM) | relative viability ([2]; first compound 0.06325 µM) | relative viability ([3]; first compound 0.06325 µM) | relative viability ([4]; first compound 0.06325 µM)
1 | PC-3 [JPC-3] | 0.78 | 0.81 | 0.363 | 0.314 | 0.506 | 0.505 | 0.516 | 0.554 | 0.959 | 0.998 | 1 | 0.956 | 0.803 | 0.748 | 0.845 | 0.804 | – | – | –
2 | NCI-H2009 | 0.599 | 0.566 | 0.334 | 0.13 | 0.251 | 0.249 | 0.214 | 0.304 | 1.13 | 1.09 | 1.11 | 1.14 | 0.376 | 0.351 | 0.372 | 0.403 | 0.23 | 1.12 | 0.318
3 | HCC-366 | 0.0963 | 0.109 | 0.0553 | 0.0875 | 0.417 | 0.355 | 0.367 | 0.351 | 0.409 | 0.325 | 0.376 | 0.325 | 0.327 | 0.331 | 0.36 | 0.366 | 0.343 | 0.435 | 0.361
4 | HARA | 0.0659 | 0.12 | 0.107 | 0.103 | 0.229 | 0.311 | 0.296 | 0.283 | 0.777 | 0.76 | 0.743 | 0.871 | 0.651 | 0.463 | 0.559 | 0.605 | 0.251 | 0.742 | 0.508
5 | HCC-827 | 0.318 | 0.307 | 0.249 | 0.175 | 0.49 | 0.471 | 0.49 | 0.545 | 1.01 | 1.07 | 0.908 | 0.91 | 0.345 | 0.322 | 0.376 | 0.37 | – | – | –
6 | LXF-289 | 0.185 | 0.179 | 0.112 | 0.174 | 0.612 | 0.61 | 0.597 | 0.596 | 1.08 | 0.976 | 0.994 | 0.998 | 0.377 | 0.352 | 0.408 | 0.338 | 0.579 | 0.984 | 0.394
7 | NCI-H460 | 0.374 | 0.186 | 0.0861 | 0.0393 | 0.162 | 0.103 | 0.177 | 0.172 | 0.496 | 0.348 | 0.4 | 0.435 | 0.525 | 0.446 | 0.451 | 0.475 | 0.147 | 0.368 | 0.439
8 | NCI-H2023 | 0.355 | 0.408 | 0.205 | 0.104 | 0.39 | 0.236 | 0.214 | 0.174 | 0.655 | 0.5 | 0.474 | 0.521 | 0.217 | 0.213 | 0.247 | 0.212 | 0.279 | 0.516 | 0.203
9 | PC-14 | – | 0.51 | 0.19 | 0.174 | 0.517 | 0.542 | 0.553 | 0.464 | 0.888 | 0.87 | 0.898 | 0.804 | 0.214 | 0.225 | 0.212 | 0.183 | 0.422 | 0.878 | 0.176
